Assay results reported in publication PMC10400562, “Label-free measurement of antimicrobial peptide interactions with lipid vesicles and nanodiscs using microscale thermophoresis” (Scientific Reports, 2023).
Like-named read-outs stand apart in the source and are kept apart here. Non-standard residues stand in square brackets, D forms with d. Residues, ends and D or L forms follow the SMILES beside them.

Columns and labels:
S. aureus ATCC 9144 = type: cell-based; details: for S. aureus MIC (ATCC 9144): ATCC 9144, 24 h
Method: The bacterial strains used were E. coli ATCC 25922 and S. aureus ATCC 9144. Overnight cultures and MIC assays were performed in cationic-adjusted BD BBL Mueller Hinton II Broth (MHB II, 212322, Becton, Dickson and Company, Sparks, MD, USA).
The MICs for 1–5 were determined using the CLSI M07-A9 guidelines. Working solutions were prepared in double distilled water containing max. 1% DMSO. A concentration range between 256–0.25 µg/mL was tested for each peptide. The bacterial inoculum was 1 × 10^6 cells/mL and incubated 1:1 with each test compound in a polypropylene 96-well round-bottom plate (655209, Greiner Bio-One, Kresmmuenster, Austria). Each MIC test was performed in three biological replicates, consisting of four technical replicates. Positive controls (without antibiotics) and negative controls (without bacteria) were included for each technical replicate. The reference antibiotic erythromycin was included to assure quality control. The plates were incubated for 24 h at 37 °C. The MIC value was defined as the lowest concentration of compound resulting in no visible bacterial growth.

[1] = SPR, peptide binding to LUVs immobilized on L1 chip; details: for Kd: SPR steady state analysis, HEPES pH 7.4, room temperature, mean ± SD of triplicates; for koff PC/PG / koff PC: SPR, 10 mM HEPES pH 7.4 100 mM NaCl, room temperature, 400 s dissociation phase; for koff PC/PG: two-population fit averaged; for koff PC: two-population fit averaged (Figueira et al.); for SPR KP, DMPC: lipid/aqueous partition coefficient from SPR steady state (Figueira et al. method), DMPC LUVs; for SPR KP, DMPC / SPR KP, DMPC/PG: HEPES pH 7.4, ± SD of triplicate fits; for SPR KP, DMPC/PG: lipid/aqueous partition coefficient from SPR steady state, 95% DMPC 5% DMPG LUVs
Method: The interactions between AMPs 1–5 and LUVs were first investigated by SPR as a benchmark for the MST measurements. The data was acquired using the same lipid compositions as used in the MST data acquisition. LUVs were immobilized on an L1 chip, and an increasing concentration of AMPs was injected over them. […] The dissociation rate, koff, was calculated from the dissociation step, using the methodology presented by Figueira et al.[21], summarized in Table 2.
DMPC and DMPC:5% DMPG vesicles were prepared by solubilising a known weight of lipid in chloroform with a small amount of methanol to assist in the dissolution of the PG lipid head groups. The chloroform stock was dried in vacuo to produce a lipid film, which was further dried for additional 3 h. The lipid film was solubilised in 10 mM TRIS buffer (pH 7.4) containing 100 mM NaCl to yield a 20 mM milky lipid stock.
To produce the working vesicle stock, 1 mL of vesicle stock was extruded 20 times through a 0.1 µm filter using an Avanti Lipids mini-extruder. Vesicle size was confirmed using a Malvern Zetasizer Nano ZS (Malvern Panalytical Ltd, Malvern, United Kingdom).
The SPR measurements were performed using a T200 Biacore instrument (GE Healthcare, Oslo, Norway) at room temperature. An L1 chip was covered with extruded DMPC liposomes (1 mM in 10 mM HEPES buffer pH 7.4 with 100 mM NaCl) using a flowrate of 2 µL/min for 2400 s. Chip coverage was tested by injection of 0.1 mg/mL of bovine serum albumin for 1 min at 30 µL/min, with a change of < 400 RU indicating sufficient coverage.
The liposome surface was stabilized after each injection by three subsequent injections of 10 mM NaOH at 30 µL/min for 30 s each. Between experiments, the chip surface was cleaned by 20 mM CHAPS, 40 mM octyl-β-D-glucopyranoside and 30% ethanol in turn, with each solution injected for 1 min at 30 µL/min. The control flow cell was treated identically, with the exception that only the HEPES buffer solution was injected. The results were processed using in-house MATLAB scripts (MATLAB R2020a; scripts are available at https://github.com/MarJakubec).
KD was obtained from a steady state analysis using the intensities at the 190 s dissociation time, using Eq. (1):[21]1 Req=cRmax/KD+c+Roff where Req is the response at the steady state equilibrium, c is the peptide concentration, Rmax is the maximum response and Roff the response offset.
KP was obtained from same steady state affinity values using the method presented by Figuera et al., Eq. (2):[21]2 RUS/RUL=γLKPMS/MLSW/1+σγLKPSW where RUS and RUL are the relative responses of solute (peptides) and lipids respectively, γL is the molar volume of the lipids, MS and ML are the molecular mass of solute and lipid, respectively, and [S]W is the concentration of solute in water. KP and σ are obtained from fitting (with σ being lipid to solute ratio).
For koff evaluation we have used the formalism of Figuera et al.[21] for linearization of the dissociation process, where we have identified the contribution from two different populations in the dissociation response. Koff values were then obtained by Eq. (3) and averaged by Eq. (4):3 SL(t)=αe^-koff,α^t+βe^-koff,β^t+SL,r 4 koff=αkoff,α+βkoff,β/α+β where SL is the linearized ratio of solute and lipid, α and β are individual populations, and SL,r is the retained solute fraction.

[2] = 95% DMPC 5% DMPG LUVs on L1 chip, read-out: SPR KD, DMPC/PG
[3] = 95% DMPC 5% DMPG LUVs on L1 chip

| Compound | S. aureus MIC (ATCC 9144) (S. aureus ATCC 9144) [mg/L] | Kd [1, 2] [µM] | Kd ([1]; DMPC LUVs on L1 chip) [µM] | koff PC/PG [1, 3] [s⁻¹] | koff PC ([1]; DMPC LUVs on L1 chip) [s⁻¹] | SPR KP, DMPC [1] | SPR KP, DMPC/PG [1] | antimicrobial activity against tested strain (S. aureus ATCC 9144; S. aureus ATCC 9144, statement in text) |
| --- | --- | --- | --- | --- | --- | --- | --- | --- |
| NCCCC[C@@H]1NC(=O)[C@H](CCCCN)NC(=O)[C@H](Cc2c[nH]c3ccccc23)NC(=O)[C@H](Cc2c[nH]c3ccccc23)NC(=O)[C@H](Cc2c[nH]c3ccccc23)NC(=O)[C@H](CCCCN)NC1=O [compound 3] (cyclo(WWWKKK)) | 32 | 112 ± 15 | 302 ± 32 | 0.32 ± 0.05 | 0.48 ± 0.07 | 2.53 ± 0.08 × 10^3 | 5.16 ± 0.34 × 10^3 |  |
| CC(C)C[C@@H]1NC(=O)[C@@H](CCCNC(=N)N)NC(=O)[C@H](CCCCN)NC(=O)[C@H](CC(N)=O)NC(=O)[C@@H](Cc2c[nH]c3ccccc23)NC(=O)[C@H](Cc2c[nH]c3ccccc23)NC1=O [compound 5] (cyclo(LW[dW]NK[dR])) | > 256 | 1030 ± 58 | 2550 ± 493 | 1.75 ± 0.16 | 1.76 ± 0.12 | 0.28 ± 0.01 × 10^3 | 0.40 ± 0.02 × 10^3 | inactive |

More lines, main results first:

| S. aureus MIC (ATCC 9144) (S. aureus ATCC 9144) [mg/L] | Kd [1, 2] [µM] | Kd ([1]; DMPC LUVs on L1 chip) [µM] | koff PC/PG [1, 3] [s⁻¹] | koff PC ([1]; DMPC LUVs on L1 chip) [s⁻¹] | SPR KP, DMPC [1] | SPR KP, DMPC/PG [1] | Compound | antimicrobial activity against tested strain (S. aureus ATCC 9144; S. aureus ATCC 9144, statement in text) |
| --- | --- | --- | --- | --- | --- | --- | --- | --- |
| 4 | 70 ± 1 | 142 ± 35 | 0.19 ± 0.01 | 0.22 ± 0.02 | 6.65 ± 0.80 × 10^3 | 12.71 ± 0.16 × 10^3 | N=C(N)NCCC[C@@H]1NC(=O)[C@H](CCCNC(=N)N)NC(=O)[C@H](Cc2c[nH]c3ccccc23)NC(=O)[C@H](Cc2c[nH]c3ccccc23)NC(=O)[C@H](Cc2c[nH]c3ccccc23)NC(=O)[C@H](CCCNC(=N)N)NC1=O [compound 1] (cyclo(WWWRRR)) |  |
| 32 | 105 ± 7 | 318 ± 62 | 0.48 ± 0.05 | 0.87 ± 0.19 | 1.30 ± 0.09 × 10^3 | 3.16 ± 0.15 × 10^3 | N=C(N)NCCC[C@@H]1NC(=O)[C@H](Cc2c[nH]c3ccccc23)NC(=O)[C@H](CCCNC(=N)N)NC(=O)[C@H](Cc2c[nH]c3ccccc23)NC(=O)[C@H](CCCNC(=N)N)NC(=O)[C@H](Cc2c[nH]c3ccccc23)NC1=O [compound 2] (cyclo(WRWRWR)) |  |
| 128 | 474 ± 45 | 712 ± 27 | 1.32 ± 0.05 | 0.90 ± 0.24 | 0.53 ± 0.01 × 10^3 | 0.63 ± 0.03 × 10^3 | NCCCC[C@@H]1NC(=O)[C@H](Cc2c[nH]c3ccccc23)NC(=O)[C@H](CCCCN)NC(=O)[C@H](Cc2c[nH]c3ccccc23)NC(=O)[C@H](CCCCN)NC(=O)[C@H](Cc2c[nH]c3ccccc23)NC1=O [compound 4] (cyclo(WKWKWK)) |  |
